According to PMC6204527, “The Human Gut Colonizer Blastocystis Respires Using Complex II and Alternative Oxidase to Buffer Transient Oxygen Fluctuations in the Gut” (Frontiers in Cellular and Infection Microbiology, 2018):

Experiments:
[1] = target: T1, Blastocystis alternative oxidase (AOX) (Blastocystis hominis, UniProt D3GDI7); test: O2 uptake, Clark electrode, E. coli FN102 membranes; assay type: biochemical; conditions: 1 mM duroquinol; O2 co-substrate (250 μM); 50 mM Tris-HCl pH 7.5; 25 °C
T1 construct: full-length 304 aa (predicted 35 kDa), N-terminal 6xHis from pET-14b, expressed in heme-deficient E. coli FN102; E. coli membranes or whole cells
T1 sequence (D3GDI7 1-304): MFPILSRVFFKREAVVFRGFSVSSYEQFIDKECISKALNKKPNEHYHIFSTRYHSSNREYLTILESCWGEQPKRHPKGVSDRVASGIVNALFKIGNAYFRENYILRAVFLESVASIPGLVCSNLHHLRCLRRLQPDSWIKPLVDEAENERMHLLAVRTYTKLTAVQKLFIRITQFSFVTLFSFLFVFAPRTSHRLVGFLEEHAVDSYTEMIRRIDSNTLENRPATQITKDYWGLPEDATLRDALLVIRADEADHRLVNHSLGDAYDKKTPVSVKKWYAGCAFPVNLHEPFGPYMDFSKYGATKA

[2] = target: T1, Blastocystis alternative oxidase (AOX); test: as above; assay type: biochemical; conditions: 1 mM duroquinol; 50 mM Tris-HCl pH 7.5; 25 °C; antimycin A 1 μM also added

With `Cc1c(C)c(O)c(C)c(C)c1O` [DQH2, duroquinol] the “O2 uptake, Clark electrode, E. coli FN102 membranes” value [1] was “Addition of duroquinol (Sigma), an AOX substrate, initiates oxygen consumption”.

In the case of `CCCCCCCCOC(=O)c1cc(O)c(O)c(O)c1` [OG, octylgallate], the “inhibition at 25 μM” value [2] is reported as “Oxygen consumption is almost completely abated by the addition of octylgallate, an AOX inhibitor”.
